From patent publication US8008354B2, “Death receptor sensitizing compounds and methods of use therefor” (Burnham Institute for Medical Research, priority 2006, dated 2011)

Key:
[1] = test system: PPC-1, OVCAR-3, T47D, MDA-MB-468 and DU 145 cells; test: MTS viability with CH-11 after FLIP siRNA transfection; format: cell-based; conditions: PPC-1 cells transfected with FLIP siRNA 10 nM
Method: FIG. 8. Decreases in FLIP by compound 5809354 are functionally important. (A) PPC-1, OVCAR-3, T47D, and DU 145 cells (2×10^5) were seeded into 35 mm plates and transfected with double-stranded siRNA targeting FLIP (f), control ds RNA (c), or mock transfected with buffer alone (m). At 24 hours after transfection, cells were treated with CH-11 (100 ng/mL) or buffer control. Cell viability was measured by an MTS assay and expressed as a percentage of untreated control cells (mean+SD; n=3). (B) Levels of FLIP protein were measured by immunoblotting. (C) PPC-1 cells (2×10^5) were seeded into 35 mm plates and transfected with siRNAs (10 nM) targeting FLIP or luciferase as a control (CNTRL). At 24 hours after transfection, cells were treated with increasing concentrations of 5809354 with or without CH-11 anti-FAS antibody (100 ng/mL) for an additional 24 hours. Cell viability was measured by an MTS assay, and expressed as a percentage of control untreated cells (mean+SD; n=3).
Transfection of siRNA oligonucleotides. […]
To test the functional importance of decreases in FLIP by 5809354, it was determined whether knocking down FLIP could recapitulate the activity of the molecule and abrogate 5809354's ability to sensitize cells to CH-11. […]

[2] = test system: PC-3, DU-145, LNCaP, T47D, MB-MDA-468 and OVCAR-3 cells; test: Anoikis of additional malignant cell lines: colony formation after suspension culture; format: cell-based
Method: FIG. 14. Tumor cell sensitivity to anoikis correlates with sensitivity to Fas-mediated apoptosis. PC-3, DU-145, and LNCaP prostate, T47D and MB-MDA-468 breast, and OVCAR-3 ovarian cancer cells were cultured under adherent conditions with increasing concentrations of 5809354, in the presence or absence of Fas-activating antibody (CH-11, 100 ng/mL). Thirty hours after incubation, cell viability was determined using the MTS assay. Cell lines were also cultured under suspension conditions in the presence or absence of 5809354. Thirty hours after incubation, equal volumes of suspension-cultured cells were replated in a colony formation assay. Data represents the mean±SEM percent of viable cells or colonies compared to untreated controls.
Cell viability apoptosis, colony formation, and caspase activation assays. Cell viability was assessed using the MTS reduction assay (Promega, Madison, Wis., USA) according to the manufacturer's protocols and as described in Schimmer et al. (2006). Apoptosis was measured by flow cytometry to detect cell surface annexin V expression and propidium iodide (PI) uptake (Biovision, Mountain View, Calif., USA) as described in Carter et al. (2005). […] Clonogenic growth after suspension culture was measured using colony formation assays. […] Colonies were fixed, stained with methylene blue, and counted. […]

Question: “4-(4-chloro-2-methylphenoxy)-N-hydroxybutanamide [compound 5809354]” was tested. Which “enhancement of CH-11-mediated killing in the presence of FLIP siRNA” value [1] did it give?
Answer: Its value is “the longer enhanced CH-11-mediated killing”.

Question: And the sensitization to anoikis ([2]; LNCaP or MB-MDA-468 cells)?
Answer: Its sensitization to anoikis is “did not sensitize”.

Question: And the sensitization to anoikis ([2]; PC-3 and DU-145 prostate, T47D breast and OVCAR-3 ovarian cancer cell lines)?
Answer: Its sensitization to anoikis is “sensitized”.
